Data published in ChEMBL document CHEMBL4190202, “Gunnilactams A-C, Macrocyclic Tetralactams from the Mycelial Culture of the Entomogenous Fungus Paecilomyces gunnii” (J Nat Prod, 2017).

Experiments:
[1] = test system: LNCaP C4-2B; test: Cytotoxicity against human C4-2B cells after 72 hrs by MTT assay; type: functional, cell-based
[2] = test system: DU-145; test: Growth inhibition of human DU145 cells at 2 uM after 72 hrs by MTT assay relative to control; type: functional; details: DU-145, 72 h, read-out: GI

In the case of `C[C@@H]1NC(=O)/C=C/[C@@H](O)CC[C@H](C)NC(=O)[C@H]2C[C@]1(O)NC1=C2C(=O)N[C@@H](C)C1`, the IC50 [1] is reported as 5.4 µM and the inhibition of growth at 2 µM [2] is reported as 4.5%.
